Patent US7105529B2, “Substituted oxindole derivatives as protein tyrosine and as protein serine/threonine kinase inhibitors and compositions and methods of treating chemotherapy and radiation therapy side effects” (SmithKline Beecham Corporation, priority 1997, dated 2006)

Columns and labels:
[1] = molecular target: cSrc (Homo sapiens, UniProt P12931); assay: Src kinase assay (ELISA or isotope format); type: biochemical
Procedure: The peptide substrates used in Src and Lck assays were biotin-aminohexyl-EEIYGEF-NH2 (Src) and biotin-aminohexyl-[…]-NH2 (Lck). The src and Ick proteins were purified to homogeneity from a baculovirus expression system and preactivated before adding to assay mixtures. The maximum activation was achieved by incubating concentrated enzyme ([…]) on ice for 40 min in the presence of 1 mM ATP and 10 mM MgCl2 in 100 mM HEPES, pH 7.5. The activated enzyme was diluted to 2 nM into a […] reaction mixture containing 100 mM HEPES, pH 7.5, 5 mM ATP, 10 mM MgCl2, 2 mM peptide, 0.05 mg/mL BSA, and an inhibitor at varying concentrations and with or without 8 mCi/mL [γ-^33P]ATP dependent upon the method of analysis for the extent of reaction. The controls were reactions in the presence (negative controls) or absence (positive controls) of 50 mM EDTA. Reactions were allowed to proceed for 30 min at room temperature and quenched with addition of EDTA to 50 mM in […]. The extent of reactions was analyzed in one of the two ways: an Elisa-based and a radioactive isotope-based. The quenched samples ([…]) were transferred to a neutravidin coated plate (Perice) and incubated at room temperature for 40 min to allow biotinylated peptide to bind to neutravidin. […] The plate was read at A625 in a plate reader. […] The plate was sealed and counted in a micro-b-counter (Wallac). […]

[2] = tested on: MES/SA cells; assay: FACS assay (cell death), MES/SA; type: cell-based; conditions: Homo sapiens, 50% cell death, 72 h
Procedure: (§1) These assays allow determination of both cell death and changes in cell cycle profile in cells following treatment of the compound. The assay is performend as follows: • 1. Cells are incubated in DMEM to which 10% FCS has been added in a humidified incubator at 37° C. and 5% by volume of CO2 in air. The cells are innoculated in 6-well plates at a density of 0.5–5×10^5 cells per well. • 2. The test compound is added in serial dilutions 24–36 h after plating in 0.5% DMSO. The plates are then incubated a further 72 h in the presence of the compound. During this time, cells in control cultures undergo at least three cell divisions. • 3. After incubation, the media is collected and cells are harvested by trypsinization. The cells and media are pooled and pelleted by centrifugation. • 4. The cell pellet is fixed in a final volume of 3 mL of 50% ice cold MeOH and incubated for a minimum of 30 min at −20° C. • 5. The cells are pelleted by centrifugation and resuspended in 0.5 mL PBS containing 1%FCS, […] Propidium Iodide (PI) and […] RNase A and incubated 30 min at 37° C. in the dark. • 6. The samples are analysed by flow cytometry using the relative incorporation of PI as a measure of DNA content of each cell. The % Dead cells is recorded as % of events with less than 2N DNA. […] HDF are normal diploid fibroblast cells. […]

[3] = molecular target: Lck (Homo sapiens, UniProt P06239); assay: Lck kinase assay (ELISA or isotope format); type: biochemical
Chain of Lck (P06239 whole entry): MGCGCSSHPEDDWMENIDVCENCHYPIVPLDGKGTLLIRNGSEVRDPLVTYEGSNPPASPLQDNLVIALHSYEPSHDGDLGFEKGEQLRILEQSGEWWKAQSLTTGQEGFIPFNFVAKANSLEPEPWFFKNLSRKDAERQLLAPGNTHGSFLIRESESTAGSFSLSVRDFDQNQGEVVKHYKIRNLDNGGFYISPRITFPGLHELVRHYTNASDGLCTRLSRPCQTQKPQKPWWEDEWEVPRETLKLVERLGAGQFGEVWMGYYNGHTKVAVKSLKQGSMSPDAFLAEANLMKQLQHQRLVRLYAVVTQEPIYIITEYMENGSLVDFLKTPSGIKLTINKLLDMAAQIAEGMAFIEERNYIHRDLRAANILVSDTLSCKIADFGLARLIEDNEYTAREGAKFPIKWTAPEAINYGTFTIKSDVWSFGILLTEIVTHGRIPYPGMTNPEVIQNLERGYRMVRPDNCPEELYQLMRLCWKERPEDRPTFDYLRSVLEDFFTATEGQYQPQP
Procedure: The src and Ick proteins were purified to homogeneity from a baculovirus expression system and preactivated before adding to assay mixtures. The maximum activation was achieved by incubating concentrated enzyme (10–30 mM) on ice for 40 min in the presence of 1 mM ATP and 10 mM MgCl2 in 100 mM HEPES, pH 7.5. The activated enzyme was diluted to 2 nM into a 50-mL reaction mixture containing 100 mM HEPES, pH 7.5, 5 mM ATP, 10 mM MgCl2, 2 mM peptide, 0.05 mg/mL BSA, and an inhibitor at varying concentrations and with or without 8 mCi/mL [γ-^33P]ATP dependent upon the method of analysis for the extent of reaction. The controls were reactions in the presence (negative controls) or absence (positive controls) of 50 mM EDTA. Reactions were allowed to proceed for 30 min at room temperature and quenched with addition of EDTA to 50 mM in 220 mL. The extent of reactions was analyzed in one of the two ways: an Elisa-based and a radioactive isotope-based. The quenched samples (200 mL) were transferred to a neutravidin coated plate (Perice) and incubated at room temperature for 40 min to allow biotinylated peptide to bind to neutravidin. The unbound peptide and the rest of the solution was washed away using a plate washer. […] The plate was read at A625 in a plate reader. […] The plate was sealed and counted in a micro-b-counter (Wallac). […]

[4] = molecular target: T1, UL97 (Human cytomegalovirus, UniProt P16788); assay: UL97 protein kinase assay (32P transfer to histone H2B); type: biochemical
T1 construct: GST; made in house; host or cells: sf9 cells (baculovirus vector)
T1 sequence (P16788 whole entry): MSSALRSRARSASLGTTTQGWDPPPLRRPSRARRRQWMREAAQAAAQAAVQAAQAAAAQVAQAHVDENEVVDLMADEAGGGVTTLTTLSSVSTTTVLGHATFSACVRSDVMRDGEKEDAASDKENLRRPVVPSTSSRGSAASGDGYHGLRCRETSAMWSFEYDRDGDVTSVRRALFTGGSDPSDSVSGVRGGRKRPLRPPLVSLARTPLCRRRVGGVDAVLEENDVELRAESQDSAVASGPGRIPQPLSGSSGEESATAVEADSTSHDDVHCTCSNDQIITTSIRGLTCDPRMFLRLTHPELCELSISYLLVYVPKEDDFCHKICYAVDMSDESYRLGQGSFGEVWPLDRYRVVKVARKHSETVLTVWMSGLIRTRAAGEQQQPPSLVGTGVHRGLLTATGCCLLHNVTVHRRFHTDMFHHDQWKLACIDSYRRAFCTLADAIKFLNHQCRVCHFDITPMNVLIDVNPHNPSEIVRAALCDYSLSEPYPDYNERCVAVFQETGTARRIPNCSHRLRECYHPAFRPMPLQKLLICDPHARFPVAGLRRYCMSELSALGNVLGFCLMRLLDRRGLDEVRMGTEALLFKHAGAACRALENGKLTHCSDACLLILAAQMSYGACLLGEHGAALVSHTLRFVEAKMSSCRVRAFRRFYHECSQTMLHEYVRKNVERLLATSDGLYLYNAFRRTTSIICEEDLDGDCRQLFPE
Procedure: UL97 was produced as a GST fusion protein from a baculovirus vector expressed in sf9 cells as described by He (He, et al., Journal of Virology 1997, 71, 405–11). UL97 was assayed as a protein kinase using ^32P transfer from ATP to histone H2B with detection of radiolabeled histone bound to phosphocellulose. Assay mixes for testing inhibitors of UL97 activity contained 2 mM [γ^32P]-ATP, 15 mM histone H2B, 50 mM sodiumCHES, pH 9.5, 1 M NaCl, 2 mM dithiothreitol and 10 mM MgCl2. Inhibitors were dissolved in diluted DMSO to give a final DMSO concentration in the reaction of 1% DMSO. After incubation at 20° C., the reactions were terminated by addition of 10 volumes of 75 mM phosphoric acid, 30 mM ATP, 1 mM EDTA, then were spotted onto phosphocellulose filters and washed four times with 75 mM phosphoric acid. Radioactivity was determined by liquid scintillation counting.

[5] = molecular target: VEGFR-2 (Homo sapiens, UniProt P35968); assay: VEGFR-2 kinase assay; type: biochemical; conditions: read-out: VEGFR2 (IC50)
Chain of VEGFR-2 (P35968 834-1162 limits assumed): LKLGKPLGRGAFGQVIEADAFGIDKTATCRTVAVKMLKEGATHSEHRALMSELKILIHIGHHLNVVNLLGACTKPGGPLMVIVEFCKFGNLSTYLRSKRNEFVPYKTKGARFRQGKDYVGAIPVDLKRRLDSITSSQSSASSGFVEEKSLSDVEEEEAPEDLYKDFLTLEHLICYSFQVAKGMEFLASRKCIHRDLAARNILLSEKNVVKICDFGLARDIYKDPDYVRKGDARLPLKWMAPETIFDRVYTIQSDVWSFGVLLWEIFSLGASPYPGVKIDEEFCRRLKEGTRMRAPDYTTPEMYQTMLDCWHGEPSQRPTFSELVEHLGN
Procedure: The kinase domain of the enzyme was purified to homogeneity from a baculovirus expression system. The enzyme was preactivated on ice for 15 min in the presence of 100 μM ATP and 20 mM MgCl2, and stored at −80° C. until needed for assay. The activated enzyme was diluted to 0.4 nM into a 60 μl reaction containing 100 mM HEPES, pH 7.5, 5 μM ATP, 10 mM MgCl2, 5 μM peptide, 0.1 mM DTT, 0.05 mg/ml BSA, and an inhibitor at varying concentrations. The controls were reactions in the presence (negative controls) or absence (positive controls) of 50 mM EDTA. Reactions were incubated for 30 min at room temperature, and then quenched by the addition of EDTA to 60 mM in 210 μl. The quenched samples (190 μl) were transferred to a neutravidin-coated plate (Pierce) and incubated at room temperature for 40 min to allow biotinylated peptide to bind to the neutravidin. The unbound components of the reaction were removed by washing with a plate washer, then 200 μl HRP-PY20 anti-phosphotyrosine antibody conjugate was added to each well. After incubation for 40 min, the plate was washed to remove any unbound anitbody. A HRP substrate, K-blue (Neogen) was added and the reaction was quenched with Red Stop (Neogen) after 20 min. The absorbance of the wells was read at A650 in a plate reader. IC50 values were obtained by fitting raw data to A650=VMAX*(1−[I]/IC50+[I])))+b, where b is background.

[6] = molecular target: CDK2 (Homo sapiens, UniProt P24941); assay: CDK2 substrate phosphorylation assay; type: biochemical
Procedure: CDK1 and CDK2 were both expressed utilizing a baculovirus expression system and were partially purified to comprise 20–80% of total protein, with no detectable competing reactions present. […] Reactions were terminated with 0.2–2 volumes of either 20% acetic acid or 50–100 mM EDTA buffered to pH 7 (substrate consumption <20%). The buffer employed in enzyme assays was either 30 mM HEPES 7.4 containing 0.15 M NaCl and 5% DMSO, the buffer 50 mM MOPS 7.0 containing 0.15 M NaCl and 5% DMSO, or the buffer 100 mM HEPES pH 7.5 containing 0.1 mg/mL BSA and 5% DMSO. Inhibitors were diluted in 100% DMSO prior to addition into the assay. Detection of peptide phosphorylation was accomplished by scintillation counting following either collection of peptide onto phosphocellulose filters (for reactions stopped with acetic acid), collection of peptide in wells of 96 well plates coated with Streptavidin (Pierce) (reactions were stopped with EDTA), or addition of Avidin coated Scintillant impregnated beads (Scintillation Proximity Assays from Amersham, reactions were stopped with EDTA).
CDK1 and CDK2 were both expressed utilizing a baculovirus expression system and were partially purified to comprise 20–80% of total protein, with no detectable competing reactions present. […]

[7] = tested on: RKO colon adenocarcinoma cells; assay: FACS assay (cell death), RKO; type: cell-based; conditions: Homo sapiens; 50% cell death, 72 h
Procedure: as §1

Chain of cSrc (P12931 whole entry): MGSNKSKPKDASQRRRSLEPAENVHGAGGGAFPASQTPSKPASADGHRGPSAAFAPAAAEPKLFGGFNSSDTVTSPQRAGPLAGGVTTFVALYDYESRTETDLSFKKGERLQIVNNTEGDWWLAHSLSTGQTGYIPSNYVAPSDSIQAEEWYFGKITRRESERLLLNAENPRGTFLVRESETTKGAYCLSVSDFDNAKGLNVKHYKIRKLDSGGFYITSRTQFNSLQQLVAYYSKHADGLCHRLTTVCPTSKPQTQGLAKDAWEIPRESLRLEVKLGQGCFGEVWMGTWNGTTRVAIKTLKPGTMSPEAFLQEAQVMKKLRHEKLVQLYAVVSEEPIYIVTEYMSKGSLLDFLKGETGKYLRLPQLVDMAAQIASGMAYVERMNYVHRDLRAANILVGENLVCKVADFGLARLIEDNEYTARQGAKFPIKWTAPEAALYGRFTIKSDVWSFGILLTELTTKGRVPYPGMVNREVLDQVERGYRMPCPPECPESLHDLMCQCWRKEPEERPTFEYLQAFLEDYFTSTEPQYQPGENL

SMILES | IC50 [1] [nM] | IC50 [2] [nM] | IC50 [3] [nM] | IC50 [4] [nM] | IC50 [5] [nM] | IC50 [6] [nM] | IC50 [7] [nM]
NS(=O)(=O)c1ccc(NN=C2C(=O)Nc3ccc(-c4cnco4)cc32)cc1 [Example 36] | > 100 | 100 to 500 | > 100 | 11 to 50 | > 100 |  | 
COC(=O)c1ccc2c(c1)/C(=C/Nc1ccc(S(N)(=O)=O)cc1)C(=O)N2 [Example 27] |  |  |  |  |  | 1 to 10 | 1100 to 5000
